Source: patent EP4692061A1, “LOW-MOLECULAR-WEIGHT COMPOUND HAVING CEREBLON-BINDING ACTIVITY, AND USE THEREOF” (Aevis Bio, Inc., priority 2023, dated 2024)
Where two headings read alike, the source gives them in different places.

Target: cereblon (CRBN) (Homo sapiens, UniProt Q96SW2)
Assay: In vitro CRBN binding assay (AlphaScreen, competitive inhibition of the PROTAC assay)
[1] = Table 1, AlphaScreen, PROTAC Optimization Kit for BET Bromodomain-Cereblon Binding, read-out: Alpha IC50

Structure (SMILES) | IC50 [1] | IC50
O=C1CCC(c2cccc(NS(=O)(=O)c3cccc(Cl)c3Cl)c2)C(=O)N1 (centres unmarked) [AEV40058] | 680 nM | –
Cc1ccc(C(=O)Nc2cccc(C3CCC(=O)NC3=O)c2)cc1 (centres unmarked) [AEV40141] | 2080 nM | –
O=C1CCC(c2cccc(NC(=O)c3cc(-c4ccccc4)ccc3Cl)c2)C(=O)N1 (centres unmarked) [AEV40222] | 1720 nM | –
O=C1CCC(c2cccc(NS(=O)(=O)c3cccc(NC(=O)c4ccc(Cl)c(Cl)c4)c3)c2)C(=O)N1 (centres unmarked) [AEV40142] | 980 nM | –
O=C1CCC(c2cccc(NS(=O)(=O)c3cccc([N+](=O)[O-])c3)c2)C(=O)N1 (centres unmarked) [AEV40056] | 910 nM | –
O=C1CCC(c2ccc3c(c2)NC(=O)C3)C(=O)N1 (centres unmarked) [AEV40062] | 2390 nM | –
O=C1CCC(c2cccc(NCc3ccc(Cl)cc3)c2)C(=O)N1 (centres unmarked) [AEV40090] | 2140 nM | –
CC(C)C(=O)Nc1ccc(F)c(C2CCC(=O)NC2=O)c1 (centres unmarked) [AEV40035] | 3110 nM | –
O=C1CCC(c2cccc(NS(=O)(=O)c3cccc(NC(=O)c4ccccc4)c3)c2)C(=O)N1 (centres unmarked) [AEV40143] | 610 nM | –
CS(=O)(=O)Nc1cccc(C2CCC(=O)NC2=O)c1 (centres unmarked) [AEV40030] | 7060 nM | –
Nc1cccc(S(=O)(=O)Nc2cccc(C3CCC(=O)NC3=O)c2)c1 (centres unmarked) [AEV40073] | 590 nM | –
O=C1CCC(c2cccc(NS(=O)(=O)c3cccc(NC(=O)c4c(F)cccc4C(F)(F)F)c3)c2)C(=O)N1 (centres unmarked) [AEV40149] | 1500 nM | –
O=C1CCC(c2cccc(NS(=O)(=O)c3cccc(NC(=O)c4c(F)cccc4F)c3)c2)C(=O)N1 (centres unmarked) [AEV40156] | 1250 nM | –
Cc1cccc(CNc2cccc(C3CCC(=O)NC3=O)c2)c1 (centres unmarked) [AEV40106] | 1140 nM | –
O=C1CCC(c2cccc(NC(=O)c3ccccc3-c3ccccc3)c2)C(=O)N1 (centres unmarked) [AEV40218] | 440 nM | –
CC1CCC(C(=O)Nc2cccc(N3CCOc4cc(C5CCC(=O)NC5=O)ccc4C3=O)c2)CC1 (centres unmarked) [AEV40213] | 2110 nM | –
O=C1CCC(c2cccc(NC(=O)c3c(Cl)cc(Cl)cc3Cl)c2)C(=O)N1 (centres unmarked) [AEV40138] | 800 nM | –
O=C1CCC(c2cccc(NS(=O)(=O)c3ccc([N+](=O)[O-])c(C(F)(F)F)c3)c2)C(=O)N1 (centres unmarked) [AEV40053] | 750 nM | –
CCCCc1ccc(C(=O)Nc2cccc(Nc3cccc(C4CCC(=O)NC4=O)c3)c2)cc1 (centres unmarked) [AEV40221] | 1650 nM | –
Cc1ccccc1C(=O)Nc1cccc(C2CCC(=O)NC2=O)c1 (centres unmarked) [AEV40146] | 1100 nM | –
O=C1CCC(c2cccc(NC(=O)c3ccccc3Cl)c2)C(=O)N1 (centres unmarked) [AEV40144] | 960 nM | –
O=C1CCC(c2cccc(Nc3cccc(NC(=O)C4(C(=O)Nc5ccc(F)cc5)CC4)c3)c2)C(=O)N1 (centres unmarked) [AEV40219] | 2210 nM | –
O=C1CCC(c2cc(NS(=O)(=O)c3ccc(Cl)cc3)ccc2F)C(=O)N1 (centres unmarked) [AEV40038] | 690 nM | –

Structure (SMILES) | IC50 [1] | IC50
Cc1ccc(NC(=O)CCc2cccc(Nc3cccc(C4CCC(=O)NC4=O)c3)c2)cc1Cl (centres unmarked) [AEV40185] | 4350 nM | –
Cc1ccc(CNc2cccc(C3CCC(=O)NC3=O)c2)cc1 (centres unmarked) [AEV40102] | 1240 nM | –
COc1ccc(CN2CCOc3ccc(C4CCC(=O)NC4=O)cc3C2=O)cc1 (centres unmarked) [AEV40036] | 1130 nM | –
O=C1CCC(c2cccc(NS(=O)(=O)c3cccs3)c2)C(=O)N1 (centres unmarked) [AEV40072] | 310 nM | –
O=C1CCC(c2cccc(NS(=O)(=O)c3ccccc3Cl)c2)C(=O)N1 (centres unmarked) [AEV40057] | 590 nM | –
O=C1CCC(c2cccc(NC(=O)Nc3ccc(Cl)cc3)c2)C(=O)N1 (centres unmarked) [AEV40131] | 190 nM | –
O=C1CCC(c2cccc(NS(=O)(=O)c3cccc(NC(=O)c4cccc(Cl)c4)c3)c2)C(=O)N1 (centres unmarked) [AEV40136] | 790 nM | –
O=C1CCC(c2ccc3c(c2)C(=O)NCC3)C(=O)N1 (centres unmarked) [AEV40078] | 3110 nM | –
CCOC(=O)/C=C/c1cc(C)ccc1C1CCC(=O)NC1=O (centres unmarked) [AEV40160] | 2920 nM | –
O=C1CCC(c2cccc(NC(=O)c3ccc(Cl)c(Cl)c3)c2)C(=O)N1 (centres unmarked) [AEV40137] | 2220 nM | –
CC1CCC(C(=O)Nc2cccc(S(=O)(=O)Nc3cccc(C4CCC(=O)NC4=O)c3)c2)CC1 (centres unmarked) [AEV40224] | 2130 nM | –
CC(=O)Nc1cccc(C2CCC(=O)NC2=O)c1 (centres unmarked) [AEV40016] | 5280 nM | –
O=C1CCC(c2cccc(NC(=O)c3ccc(Cl)cc3Cl)c2)C(=O)N1 (centres unmarked) [AEV40076] | 1350 nM | –
Nc1ccccc1S(=O)(=O)Nc1cccc(C2CCC(=O)NC2=O)c1 (centres unmarked) [AEV40074] | 270 nM | –
O=C1CCC(c2cccc(NS(=O)(=O)c3ccc(Cl)cc3F)c2)C(=O)N1 (centres unmarked) [AEV40044] | 230 nM | –
O=C1CCC(c2cccc(NS(=O)(=O)c3cccc(NCc4c[nH]c5ccc(Cl)cc45)c3)c2)C(=O)N1 (centres unmarked) [AEV40173] | 400 nM | –
O=C1CCC(c2cccc(NC(=O)Nc3ccccc3)c2)C(=O)N1 (centres unmarked) [AEV40129] | 370 nM | –
O=C1CCC(c2cccc(NC(=O)c3ccccc3Br)c2)C(=O)N1 (centres unmarked) [AEV40179] | 640 nM | –
Cc1cn(C)nc1CNc1cccc(C2CCC(=O)NC2=O)c1 (centres unmarked) [AEV40113] | 660 nM | –
Cc1ccc(NC(=O)NCc2cccc(Nc3cccc(C4CCC(=O)NC4=O)c3)c2)cc1Cl (centres unmarked) [AEV40192] | 3220 nM | –
O=C1CCC(c2cccc(NC(=O)c3ccc4ccccc4n3)c2)C(=O)N1 (centres unmarked) [AEV40187] | 830 nM | –
CC(C)(C)c1ccc(CNc2cccc(C3CCC(=O)NC3=O)c2)cc1 (centres unmarked) [AEV40098] | 2850 nM | –
O=C1CCC(c2cccc(NCc3cccc(C(F)F)c3)c2)C(=O)N1 (centres unmarked) [AEV40105] | 1420 nM | –

Structure (SMILES) | IC50 [1] | IC50
CN1Cc2cc(C3CCC(=O)NC3=O)ccc2C1=O (centres unmarked) [AEV40050] | 2680 nM | –
O=C1CCC(c2cccc(NC(=O)c3ccsc3Cl)c2)C(=O)N1 (centres unmarked) [AEV40189] | 1630 nM | –
COc1ccccc1C(=O)Nc1cccc(S(=O)(=O)Nc2cccc(C3CCC(=O)NC3=O)c2)c1 (centres unmarked) [AEV40151] | 340 nM | –
O=C1CCC(c2ccc3c(c2)OCCN(c2cccc(NC(=O)c4ccc(Cl)cc4Cl)c2)C3=O)C(=O)N1 (centres unmarked) [AEV40217] | 1180 nM | –
O=C1CCC(c2ccc3c(c2)CCNC3=O)C(=O)N1 (centres unmarked) [AEV40041] | – | 760 nM
Nc1cccc(N2CCOc3cc(C4CCC(=O)NC4=O)ccc3C2=O)c1 (centres unmarked) [AEV40206] | 3690 nM | –
O=C1CCC(c2ccc3c(c2)CNC3=O)C(=O)N1 (centres unmarked) [AEV40040] | 1390 nM | –
COC(=O)CCc1cccc(Nc2cccc(C3CCC(=O)NC3=O)c2)c1 (centres unmarked) [AEV40184] | 1410 nM | –
O=C1CCC(c2cccc(NS(=O)(=O)c3ccccc3[N+](=O)[O-])c2)C(=O)N1 (centres unmarked) [AEV40061] | 590 nM | –
O=C1CCC(c2ccc3c(c2)OCCN(c2cccc(NC(=O)C4(C(=O)Nc5ccc(F)cc5)CC4)c2)C3=O)C(=O)N1 (centres unmarked) [AEV40215] | 2160 nM | –
O=C1CCC(c2cccc(NCc3cccc(Oc4ccccc4)c3)c2)C(=O)N1 (centres unmarked) [AEV40121] | 3040 nM | –
Cc1ccc([N+](=O)[O-])cc1S(=O)(=O)Nc1cccc(C2CCC(=O)NC2=O)c1 (centres unmarked) [AEV40060] | 1520 nM | –
Cc1ccc(NC(=O)Nc2cccc(S(=O)(=O)Nc3cccc(C4CCC(=O)NC4=O)c3)c2)cc1Cl (centres unmarked) [AEV40181] | – | 320 nM
CC(=O)N1CCC(NC(=O)CCc2cccc(Nc3cccc(C4CCC(=O)NC4=O)c3)c2)CC1 (centres unmarked) [AEV40200] | 960 nM | –
O=C1CCC(c2cccc(NS(=O)(=O)c3cccc(NC(=O)c4cc(F)cc(F)c4F)c3)c2)C(=O)N1 (centres unmarked) [AEV40158] | 710 nM | –
O=C1CCC(c2cccc(NC(=O)c3sccc3Cl)c2)C(=O)N1 (centres unmarked) [AEV40182] | 880 nM | –
O=C1CCC(c2ccc(NS(=O)(=O)c3ccc(Cl)cc3)cc2)C(=O)N1 (centres unmarked) [AEV40063] | 1430 nM | –
NCc1cccc(C2CCC(=O)NC2=O)c1 (centres unmarked) [AEV40132] | > 10000 nM | –
O=C1CCC(c2cccc(Nc3cccc(CCC(=O)Nc4cc(-c5ccccc5)[nH]n4)c3)c2)C(=O)N1 (centres unmarked) [AEV40209] | 910 nM | –
COC(=O)C1CC2(CC(NC(=O)CCc3cccc(Nc4cccc(C5CCC(=O)NC5=O)c4)c3)C2)C1 (centres unmarked) [AEV40210] | 1220 nM | –
Cn1cc(Cl)c(C(=O)Nc2cccc(C3CCC(=O)NC3=O)c2)n1 (centres unmarked) [AEV40188] | 1000 nM | –
O=C1CCC(c2cccc(NC(=O)c3c[nH]c4ccccc34)c2)C(=O)N1 (centres unmarked) [AEV40194] | 850 nM | –
O=C1CCC(c2cccc(NC(=O)c3n[nH]cc3Cl)c2)C(=O)N1 (centres unmarked) [AEV40183] | 1050 nM | –

Structure (SMILES) | IC50 [1] | IC50
O=C1CCC(c2ccc3c(c2)OCCNC3=O)C(=O)N1 (centres unmarked) [AEV40079] | 2440 nM | –
O=C1CCC(c2cccc(NS(=O)(=O)c3ccccc3F)c2)C(=O)N1 (centres unmarked) [AEV40045] | 300 nM | –
Cc1ccc(C2CCC(=O)NC2=O)cc1 (centres unmarked) [AEV40039] | 870 nM | –
O=C1CCC(c2cccc(NS(=O)(=O)c3ccc(Cl)cc3)c2)C(=O)N1 (centres unmarked) [AEV40037] | 860 nM | –
O=C1CCC(c2cccc(Nc3cccc(CCC(=O)N4CCS(=O)(=O)CC4)c3)c2)C(=O)N1 (centres unmarked) [AEV40205] | 840 nM | –
O=C1CCC(c2cccc(NS(=O)(=O)c3cccc(NC(=O)c4ccc(Cl)cc4)c3)c2)C(=O)N1 (centres unmarked) [AEV40135] | 1200 nM | –
Cc1c(Cl)cccc1S(=O)(=O)Nc1cccc(C2CCC(=O)NC2=O)c1 (centres unmarked) [AEV40043] | 910 nM | –
COc1cc(C)ccc1CNc1cccc(C2CCC(=O)NC2=O)c1 (centres unmarked) [AEV40108] | 840 nM | –
O=C1CCC(c2cccc(NC(=O)c3ccc(-c4ccccc4)cc3)c2)C(=O)N1 (centres unmarked) [AEV40161] | > 10000 nM | –
O=C1CCC(c2cccc(NS(=O)(=O)c3cccc4ccccc34)c2)C(=O)N1 (centres unmarked) [AEV40048] | 790 nM | –
O=C1CCC(c2ccc3ncoc3c2)C(=O)N1 (centres unmarked) [AEV40203] | 1800 nM | –
CC(C)C(=O)Nc1cccc(C2CCC(=O)NC2=O)c1 (centres unmarked) [AEV40024] | 6110 nM | –
Cc1ccc(C(=O)Nc2cccc(C3CCC(=O)NC3=O)c2)c(C)c1 (centres unmarked) [AEV40165] | 930 nM | –
O=C1CCC(c2cccc(NS(=O)(=O)c3cccc(NC(=O)c4ccccc4C(F)(F)F)c3)c2)C(=O)N1 (centres unmarked) [AEV40152] | 720 nM | –
O=C1CCC(c2ccc3c(c2)CN(CCc2ccccc2)C3=O)C(=O)N1 (centres unmarked) [AEV40049] | 2060 nM | –
CCc1ccc(S(=O)(=O)Nc2cccc(C3CCC(=O)NC3=O)c2)cc1 (centres unmarked) [AEV40046] | 1000 nM | –
O=C1CCC(c2cccc(NC(=O)c3cccc(Cl)c3Cl)c2)C(=O)N1 (centres unmarked) [AEV40134] | 1130 nM | –
O=C1CCC(c2cccc(NCc3cccc4ccccc34)c2)C(=O)N1 (centres unmarked) [AEV40120] | 1410 nM | –
O=C1CCC(c2ccc3c(c2)OCCN(c2ccccc2)C3=O)C(=O)N1 (centres unmarked) [AEV40085] | 6580 nM | –
O=C1CCC(c2ccc3oc(N4CCOCC4)nc3c2)C(=O)N1 (centres unmarked) [AEV40207] | 4570 nM | –
